Laboratory results as given in patent US20030134335A1, “Method for reducing the immunogenicity of heterologous proteins by elimination of t-cell epitopes” (priority 1999, published 2003).

Legend:
[1] = system: SakSTAR specific T-cell clones (CD3+, CD4+); experiment: Functional T-cell assay: proliferation (BrdU) of SakSTAR-specific T-cell clones with APC and antigen/peptide; type: cell-based, human; settings: for immunogenic / functional T-cell epitope by T-cell clone specificity: over 100 SakSTAR specific T-cell clones, SakSTAR-derived peptides; for proliferation of region(71-87)-specific T-cell clones: positive if at least three times the background
Source text: For the cloning of SakSTAR-specific T-cell clones, approximately 15×10^6 PBMC from each donor were stimulated with an optimal concentration of SakSTAR for 7-9 days. The visible T-cell clones were harvested under the microscope, and individually re-stimulated in a 96-well flat-bottom plate with autologous PBMC as antigen presenting cells (APC). These wells were supplemented on day 1 with 20U/ml recombinant human interleukin-2 (IL-2) (Boehringer Mannheim, Mannheim, Germany) and allowed to grow for 8-11 days. Re-stimulation was repeated every 8-11 days under the same conditions. After 3 to 6 passages, autologous PBMC were replaced by autologous Epstein Barr Virus (EBV)-immortalized B-cell lines as antigen presenting cells.
To identify immunogenic regions on the SakSTAR molecule, the isolated T-cell clones were tested for their specificity using SakSTAR-derived peptides. In total 25 peptides 17 residues in length, each overlapping 12 residues were synthesized using a fluorenylmethoxy-carbonyl-protected amino acid coupling procedure (Hiemstra et al., 1997). Each individual T-cell clone was tested for its specificity by co-culturing T-cells, Mitomycin C-treated autologous EBV-B-cells and antigen or the appropriate peptide for 4 days. Subsequently, the T-cell clones were pulsed for 24 hours with BrdU, harvested and analyzed for their BrdU content.

PBMC = experiment: Proliferation (stimulation index) of SakSTAR-myc-primed PBMC re-stimulated with antigen/peptides; type: cell-based, human; settings: for cellular immune response (stimulation index) of SakSTAR-myc primed PBMC: PBMC from 10 region(71-87)-immunoreactive donors, value exceeding 3 positive
Source text: However, the vast majority of humans does also recognize additional immunogenic SakSTAR regions (untouched in these SakSTAR-variants), which would invalidate such an experiment. Therefore, 25 other healthy donors were screened for SakSTAR immunoreactivity. PBMC were thawed, washed four times in 1% human serum albumin, and cultured at 1.8×10^6 cells/ml in RPMI 1640 supplemented with 5%. human serum (Biowitthaker, Walkersville, Md.) and gentamycin with or without SakSTAR-myc for 10 days in a humidified CO2 incubator. The non-adherent cells were harvested and restimulated with no antigen, SakSTAR-myc or different peptides. For antigen presenting cells, irradiated autologous PBMC were T-cell depleted, using CD3-M450 Dynabeads (Dynal, Compiégne, France) according manufacturer procedures (FACS analysis indicated >95% non-T-cells). The plates were incubated at 37° C. under humidified atmosphere containing 5% CO2 for 5 days, and pulsed with BrdU for the last 22 to 24 hours.
Subsequently, the cells were harvested and analyzed for their BrdU content (BrdU ELISA, Boehringer Mannheim, Mannheim, Germany). A stimulation index was calculated, by dividing the OD obtained from the PBMC in response to an antigen/peptide by that of the spontaneous proliferation (no antigen) control. A value exceeding 3 was considered positive, indicating the proliferation of specific T-cells to that particular antigen/peptide.

Sequence	immunogenic / functional T-cell epitope by T-cell clone specificity [1]	cellular immune response (stimulation index) of SakSTAR-myc primed PBMC (PBMC)	also measured
TYYDKNKKKEE [90-TYYDKNKKKEE-100]	no T-cell clones were isolated	–	–
TAYAAFAVVALAPSAKI [quintuple (K74A, E75A, R77A, E80A, D82A), multiple mutation(71-87) peptide]	–	none of the tested donors showed a positive cellular immune response	–
TAYKEFRVVELDPSAKI [71-TAYKEFRVVELDPSAKI-87, wild type SakSTAR(71-87) 17-mer peptide]	–	–	donors from which isolated T-cell clones were stimulated by the peptide ([1]; T-cell clones from 10 healthy donors): 9 of 10; SakSTAR positive donors with a cellular immune response to the peptide (PBMC; 20 identified SakSTAR positive donors, stimulation index exceeding 3 positive): 80%
TAYKEFAVVALAPSAKI [triple (R77A, E80A, D82A), multiple mutation(71-87) peptide]	–	none of the tested donors showed a positive cellular immune response	–
EFRVVELDPSA [S2, 11-mer peptide, SakSTAR residues 75-85]	functional T-cell epitopes	–	proliferation of region(71-87)-specific T-cell clones [1]: Tc-7 to Tc-10 recognize the S2 peptide
HYVEFPIKPGT [43-HYVEFPIKPGT-53]	no T-cell clones were isolated	–	–
TAYKEFAVVALDPSAKI [double (R77A, E80A), multiple mutation(71-87) peptide]	–	none of the tested donors showed a positive cellular immune response	–
TAYQEFSVVSLSPSAKI [quadruple (K74Q, R77S, E80S, D82S), multiple mutation(71-87) peptide]	–	none of the tested donors showed a positive cellular immune response	–
AYKEFRVVELD [S1, 11-mer peptide, SakSTAR residues 72-82]	functional T-cell epitopes	–	proliferation of region(71-87)-specific T-cell clones [1]: clones Tc-1 to Tc-6 proliferated
